Where two headings read alike, the source gives them in different places. Where a SMILES comes first, the peptide text is derived from it. [ ]: non-standard residue; d: D form. The star is where a group is joined. Palmitoyl = CCCCCCCCCCCCCCCC(=O)*; Lauroyl = CCCCCCCCCCCC(=O)*; 12Ado = NCCCCCCCCCCCC(=O)O; Decanoyl = CCCCCCCCCC(=O)*; Octanoyl = CCCCCCCC(=O)*
What was measured:
[1] = under similar conditions; increased with increasing hydrophobicity; cited from earlier work
[2] = system: GPB and GNB; assay: Effect observed at low concentrations, analog series; assay type: cell-based; conditions: summary of this and previous studies
Protocol: Table 2 Modulating biophysical properties of a core sequence by conjugating an N-terminal acyl. | column: Effect observed at low concentrations (<3 µM)

[3] = system: S. mutans; assay: microbe, parasite or virus in culture; assay type: cell-based, Streptococcus mutans
Protocol: Staphylococci, Bacilli, Escherichia, Pseudomonas, Acinetobacter, Salmonella and Klebsiella species were grown in Luria Bertani broth (LB; 5 gr/l NaCl, 5 gr/l yeast extract, 10 gr/l tryptone). Enterococci and E. coli ML-35p were grown in Tryptic Soy Broth (TSB). Listeria and Streptococci were grown in Brain Heart Infusion (BHI). All bacteria were grown over-night at 37 °C with shaking. S. mutans 35668 plated on BHI agar for enumeration was grown for 48 hr. S. mutans UA159 was grown in 5% CO2 enriched atmosphere. Fusobacterium and Porphyromonas were grown in Wilkins-Chalgren growth medium and an anaerobic atmosphere.
Minimal inhibitory concentration (MIC) was determined using the microdilution assay. Mid-log-phase bacteria at 5 × 10^5 CFU/ml were incubated in a 96-well plate with serial two-fold dilutions of the tested compound for 18–24 hr at 37 °C (final volume of 200 µl). O.D. at 620 nm was measured (Synergy HT, BioTek Instruments, Winooski, VT, USA), and the MIC was determined as the lowest concentration for which no increase in O.D. was detected.

[4] = Hydrophobicity by C18 RP-HPLC elution; assay type: physicochemical; conditions: chromatographic, RP-HPLC C18 (Vydac), flow 2 ml/min, linear acetonitrile gradient 1%/min
Protocol: OAKs were synthesized in-house (433 A Peptide Synthesizer; Applied Biosystems, Foster City, CA, USA) by the solid-phase method using 9-fluorenylmethyloxycarbonyl (Fmoc) active-ester chemistry on 4-methylbenzhydrylamine (MBHA) resin. OAKs were then deprotected and cleaved from the resin using trifluoroacetic acid:H2O (95:5) and purified to >95% chromatographic homogeneity by reverse phase high performance liquid chromatography (RP-HPLC) using C18 column (Vydac), a flow rate of 2 ml/min and a linear acetonitrile gradient of 1%/min (Alliance; Waters, Milford, MA, USA). Peaks identity was verified by mass-spectrometry (Xevo G2 Tof; Waters, Milford, MA, USA). Purified OAKs were then lyophilized and kept as dry powder at −20 °C.

[5] = system: E. coli; conditions: microdilution; cited from earlier work
Text: Table 2 Modulating biophysical properties of a core sequence by conjugating an N-terminal acyl. | column: MIC^c (µM) / E.c.

[6] = system: bacteria; conditions: cited from earlier work
Text: A variety of strategies were proposed to generate chemical mimics of AMPs to alleviate complications associated with peptide drugs, [31]. AMP-mimics may also be beneficial in helping to improve understanding the complex molecular basis for AMPs function(s) owing to their relative molecular/structural simplicity. Namely, while charge and hydrophobicity represent most critical factors influencing AMP properties, it is often challenging to identify the respective optimal proportions for controlling potency or selectivity. For instance, excess hydrophobicity might promote self-assembly in aque ...

[7] = system: S. mutans ATCC 35668 biofilm; assay: Anti-biofilm activity on pre-formed biofilm; assay type: cell-based, Streptococcus mutans; conditions: ≥0.5 mM, within one hour of exposure, inoculum 10^9 CFU/ml
Protocol: Anti-biofilm activity was evaluated against established biofilms in 96-well plates as follows. 200 µl of mid-log-phase S. mutans 35668 at 5 × 10^5 CFU/ml in BHI containing 2% sucrose were placed in each well, and plates were incubated for 24 hr at 37 °C without shaking. Unattached cells were removed by decanting the plates and biofilms were washed three times with milliQ water. Solutions of the tested compounds were placed on the biofilms for up to 3 hr at 37 °C without shaking. Plates were decanted in 0.5 hr intervals and biofilms were washed three times with milliQ water to remove any compound residues. Biofilms were scraped from the bottom of the wells, suspended in BHI and sonicated for 5 min in a sonication bath, subjected to serial 10-fold dilutions in saline and plated on BHI agar for enumeration.

[8] = system: S. mutans ATCC 35668; assay: Bactericidal kinetics (time-kill); assay type: cell-based, Streptococcus mutans; conditions: time-kill kinetics in BHI
Protocol: Bactericidal kinetics was assessed by incubating 5 × 10^5 CFU/ml of mid-log-phase bacteria with the OAK for 3 hr at 37 °C with shaking. Aliquots were taken at t = 0, 0.5, 1, 2 and 3 hr, subjected to serial 10-fold dilutions in saline (NaCl = 0.85%) and plated for enumeration after 24–48 hr incubation at 37 °C.

higher potency (MIC) than C14KKc12K ([3]; MIC of CHX versus C14KKc12K on S. mutans) | MIC ([3]; Streptococcus mutans, microdilution, BHI, 18–24 hr, 37 °C) | SMILES | binding affinity to LPS [1] | Effect observed at low concentrations (<3 µM) [2] | MIC [3] | H, hydrophobicity, defined as % acetonitrile eluent in C18 HPLC column [4] | MIC E.c. [5] | antibacterial activity [6] | killing of the initial inoculum in preformed biofilm [7] | multiples of MIC at which bactericidal [8]
– | – | CCCCCCCCCCCC(=O)N[C@@H](CCCCN)C(=O)N[C@@H](CCCCN)C(=O)NCCCCCCCCCCCC(=O)N[C@@H](CCCCN)C(N)=O [C12KKc12K] (Lauroyl-KK[12Ado]K-NH2) | lower than that of C14KKc12K | Impairing membrane damages leading to a bacteriostatic mode of action in GPB; OM permeabilization & delayed growth in GNB | 1.56 µM | 51% | 16[40] µM | – | – | –
– | – | CCCCCCCCCCCCCCCC(=O)N[C@@H](CCCCN)C(=O)N[C@@H](CCCCN)C(=O)NCCCCCCCCCCCC(=O)N[C@@H](CCCCN)C(N)=O [C16KKc12K] (Palmitoyl-KK[12Ado]K-NH2) | – | Trend reversal (reduced potency) due to excess hydrophobicity as self-assembly approaches the critical aggregation concentration | 1.56 µM | 62% | 25[24] µM | – | – | –
– | – | CCCCCCCCCC(=O)N[C@@H](CCCCN)C(=O)N[C@@H](CCCCN)C(=O)NCCCCCCCCCCCC(=O)N[C@@H](CCCCN)C(N)=O [C10KKc12K] (Decanoyl-KK[12Ado]K-NH2) | lower than that of C14KKc12K | Weak growth inhibition of some GPB and transient membrane damages including partial depolarization of CM (slight delay in GNB growth) | 6.25 µM | 46% | >50[40] µM | essentially inactive | – | –
~3 fold | 0.3 µM | [H]/N=C(\N/C(=N/[H])NCCCCCCNC(=N)NC(=N)Nc1ccc(Cl)cc1)Nc1ccc(Cl)cc1 [CHX, chlorhexidine, reference compound] | – | – | – | – | – | – | > 99% | 40 multiples of its MIC
– | – | NCCCC[C@H](NC(=O)CCCCCCCCCCCNC(=O)[C@H](CCCCN)NC(=O)[C@@H](N)CCCCN)C(N)=O [H-KKc12K-NH2] (H-KK[12Ado]K-NH2) | – | Not observed (normal growth) | >50 µM | 27% | >50[40] µM | inactive | – | –
– | – | CCCCCCCC(=O)N[C@@H](CCCCN)C(=O)N[C@@H](CCCCN)C(=O)NCCCCCCCCCCCC(=O)N[C@@H](CCCCN)C(N)=O [C8KKc12K] (Octanoyl-KK[12Ado]K-NH2) | lower than that of C14KKc12K | Weak perturbations of GNB outer membrane (normal growth) | 50 µM | 41% | >50[40] µM | essentially inactive | – | –

From paper PMC5438364, “A broad-spectrum bactericidal lipopeptide with anti-biofilm properties” (Scientific Reports, 2017)
